# Source: patent US20180149639A1, “MODELING NEURAL NETWORK DYSFUNCTION” (priority 2014, published 2018)
# Entries after “also recorded” stand apart in the source; their conditions may differ.
# What was measured:
# WT cortical networks = assay: MEA recordings of WT cortical cultures (spike rate, NAP/NIP duration from ASDR plot); type: cell-based, mice
# Description: (§1) Primary dissociated cortical neurons were prepared from postnatal day 0 wild type and Shank3 KO mice (Peca et al., 2011) from littermates using standard protocols as described before (Ramamoorthi et al., 2011). For micro-electrode array recordings, dissociated neurons were plated onto substrate embedded electrodes pre-coated with polyethyleneimine (PEI) (Sigma-Aldrich, 0.1%) plus laminin (Life Technologies, 20 μg/ml) at a density of 3×10^3 cells/mm^2. For biochemical experiments, 3×10^5 cells were plated onto 1 well of the 24-well plate pre-coated with 20 μg/ml Poly-D-lysine (PDL, Sigma-Aldrich) and 4 μg/ml laminin (Life Technologies). The cultures were treated with AraC (Sigma-Aldrich, 1 μg/ml) at day 5 in vitro, and maintained up to 21 days after plating.
# (§2) The electrical activity of cultured neurons was recorded using MEA2100-Systems (Multichannel Systems) with integrated amplifier. Each MEA dish (6-well MEA 200/30 iR-Ti-rcr, Multichannel Systems) contains six wells, with 9 microelectrodes (TiN, 30 μm diameter) arranged over a 3×3 square grid at 200 μm inter-electrode distance in each MEA well (FIG. 1C). Recordings started 10 minutes after the MEA plates were placed to the headstage, which was set to 35° C., and the culture was supplied with continuous perfusion of 5% carbon dioxide balanced air (Airgas) throughout recording. For all time points earlier than 21 days in vitro (DIV21), MEA recordings lasted 15 minutes. At DIV21, MEA recordings lasted 30 minutes. All MEA recordings were performed in culture medium without perfusion. The electric signals were collected at 10 kHz with MCRack (Multichannel Systems; Version 4.4.2) and analyzed offline.
# (§3) The software MCRack was used for spike detection. Raw MEA data was first high-pass filtered at 200 Hz to remove the low-frequency local field potentials. […] The average detection threshold is around 16 μV. Spike sorting was not performed, thus multiunit activity may contribute to the spikes detected from one electrode. Timestamps of spikes were stored and used for further analysis.
# (§4) ASDR plot was generated using the method modified from Wagenaar et al. (2008) by summing the number of spikes detected per 200 ms from all electrodes in each well and plotted in time series. Clampfit 10.2 (Molecular Devices) was used for ASDR waveform analysis. 5% of individual ASDR's maximum peak value was calculated and set as the detecting threshold for identifying ASDR spike. […] ASDR spikes with ISIs below 10 seconds were grouped together and defined as network active period (NAP).
# (§5) All drugs were dissolved in DMSO to make stock solutions before applying to neurons in culture media for pharmacological studies. Picrotoxin (PTX, stock solution of 100 mM) for blocking GABAA receptors (Tocris), Clonazepam (stock solution of 30 mM) as GABAA receptor positive modulator (Sigma), NBQX (stock solution of 10 mM) for blocking AMPA receptor (Abcam), and CX546 (stock solution of 100 mM) as AMPA receptor potentiator (Tocris) were used in doses as described herein. The maximum concentration of DMSO in the culture media with drug application was 0.08% volume.
# [1] = test system: Shank3 KO cortical networks; assay: MEA recordings of Shank3 KO cortical cultures (spike rate, NAP/NIP duration from ASDR plot); type: cell-based, mice; settings: for NIP duration relative to WT level: 100 nM
# Description: as §1, §2, §3, §4, §5
molecule,measurement,setting,value
"O=C1CN=C(c2ccccc2Cl)c2cc([N+](=O)[O-])ccc2N1 [CLP, Clonazepam]","NIP duration, dose dependence",WT cortical networks; WT cortical networks DIV21,dose dependently elongated
same,"NIP duration, % longer","WT cortical networks; WT cortical networks DIV21, 100 nM, vs before treatment (basal)",42±14%
same,"NIP duration, dose dependence",[1]; Shank3 KO networks DIV21,dose dependently increased
same,NIP duration relative to WT level,[1]; Shank3 KO networks DIV21,normalized the shortened NIP in the Shank3 KO network to the level of WT; also recorded: normalized reduced NIP duration
same,NIP duration relative to WT level,"[1]; Shank3 KO networks DIV21, listed as clonazepam",normalized
O=C(c1ccc2c(c1)OCCO2)N1CCCCC1 [CX546],NIP duration (decreased to),"WT cortical networks; WT cortical networks DIV21, 30 μM",58±11%
same,length of NAP,"WT cortical networks; WT cortical networks DIV21, up to 30 μM",remained unchanged
same,mean spike rate (reduced-firing) in spontaneous network,"[1]; Shank3 KO cultures DIV21, 30 μM",rescued the reduced-firing; also recorded: rescued the hypoactive network
same,mean spike rate (reduced-firing) in PTX-treated network,"[1]; Shank3 KO cultures DIV21 with 50 μM PTX, 30 μM",effectively rescued the reduced-firing
same,duration of NAP,[1]; Shank3 KO networks DIV21,did not significantly change
same,duration of NIP,"[1]; Shank3 KO networks DIV21, CX546 treatment",did not significantly change; also recorded: did not recover the network defect
NS(=O)(=O)c1cccc2c1c([N+](=O)[O-])cc1nc(O)c(O)nc12 [NBQX],NIP duration (enhanced by),"WT cortical networks; WT cortical networks DIV21, 1 μM",560±85%
Picrotoxin [PTX],NIP duration compared to basal (reduced to),"WT cortical networks; WT cortical networks DIV21, 0.2 μM",51±6%
same,NIP duration compared to basal (reduced to),"WT cortical networks; WT cortical networks DIV21, 0.5 μM",44±6%
same,length of NAP,"WT cortical networks; WT cortical networks DIV21, up to 0.5 μM",remained unchanged
same,mean spike rate,"WT cortical networks; WT cultures DIV21, 50 μM, vs before treatment",significantly increased
same,mean spike rate,"[1]; Shank3 KO cultures DIV21, 50 μM, vs before treatment",significantly increased
